Series [1] concerns Fasciola hepatica. Description: Fasciolicidal activity against Fasciola hepatica metacercariae infected in po dosed rat assessed as elimination of liver flukes administered as single dose. The conditions noted are these: read-out: MED. In kind it is functional.
The test system of series [2] is Fasciola hepatica. As to the kind of experiment: Fasciolicidal activity against Fasciola hepatica metacercariae infected in calves assessed as elimination of liver flukes at 15 mg/kg, po measured 8 weeks after infection. In kind it is functional. The conditions noted are these: 1344 h.
The subject of series [3] is Fasciola hepatica. As to the kind of experiment: Fasciolicidal activity against Fasciola hepatica metacercariae infected in sheep assessed as elimination of liver flukes at 15 mg/kg, po measured 6 weeks after infection. In kind it is functional. The conditions noted are these: 1008 h.
The next series concerns Ovis aries. As to the kind of experiment: Toxicity in Fasciola hepatica metacercariae infected in sheep assessed as induction of gross toxic reactions at 200 to 400 mg/kg, po administered as single dose. In kind it is organism-based. The conditions noted are these: in vivo. Set-up: dose 200-400 mg/kg, route oral.
Series [4] has as its system Fasciola hepatica. As to the kind of experiment: Fasciolicidal activity against Fasciola hepatica metacercariae infected in rat assessed as elimination of liver flukes at 3.1 mg/kg, po administered as single dose. In kind it is functional.
For series [5], the system named is Fasciola hepatica. As to the kind of experiment: Fasciolicidal activity against Fasciola hepatica metacercariae infected in sheep assessed as elimination of liver flukes at 2.5 mg/kg, po measured 16 weeks after infection. In kind it is functional. The conditions noted are these: 2688 h.

As for `O=C(Nc1ccc(Oc2ccc(Cl)cc2)c(Cl)c1)c1cc(I)cc(I)c1O` [RAFOXANIDE], in the series on Fasciola hepatica [1], the minimal effective dose was determined as 3.1 mg/kg.
The inhibition in vivo is how much of the control response was suppressed. For the compound `Nc1cc(C(Cl)=C(Cl)Cl)c(S(N)(=O)=O)cc1S(N)(=O)=O` [CLORSULON], the inhibition in vivo at 15 mg/kg with Fasciola hepatica [2] and with Fasciola hepatica [3] was above 90% throughout. Further, in the series on Ovis aries, the Activity result was “Non-toxic”. Also, the inhibition in vivo at 3.1 mg/kg in the series with Fasciola hepatica [4] is above 90%. Besides, the inhibition in vivo at 2.5 mg/kg with Fasciola hepatica [5] amounted to 90%.

Values taken from ChEMBL document CHEMBL3272045, “4-amino-6-(trichloroethenyl)-1,3-benzenedisulfonamide, a new, potent fasciolicide” (J Med Chem, 1977).
